Reference: US7781175B2, “Method of screening compounds which alter the binding properties of GPR39, and homologs thereof, to bile acid” (Takeda Pharmaceutical Company Limited, priority 2004, dated 2010)

Experiments:
Assay type in all cases: cell-based
[1] = biological target: T1, GPR39 (SEQ ID NO: 1) (Homo sapiens, UniProt O43194); experiment: SRE-luciferase reporter assay for ligand activity in GPR39-expressed HeLa cells; conditions: for Increased Luciferase Activity (cps) by TLCA in GPR39-Expressed Cells: GPR39-expressed HeLa cells, 4 hours, 0 μM baseline 3574
T1 construct: expressed in transfected cells; host or cells: HeLa cells, transient transfection (vector pAKKO-111H)
T1 sequence (O43194 1-453): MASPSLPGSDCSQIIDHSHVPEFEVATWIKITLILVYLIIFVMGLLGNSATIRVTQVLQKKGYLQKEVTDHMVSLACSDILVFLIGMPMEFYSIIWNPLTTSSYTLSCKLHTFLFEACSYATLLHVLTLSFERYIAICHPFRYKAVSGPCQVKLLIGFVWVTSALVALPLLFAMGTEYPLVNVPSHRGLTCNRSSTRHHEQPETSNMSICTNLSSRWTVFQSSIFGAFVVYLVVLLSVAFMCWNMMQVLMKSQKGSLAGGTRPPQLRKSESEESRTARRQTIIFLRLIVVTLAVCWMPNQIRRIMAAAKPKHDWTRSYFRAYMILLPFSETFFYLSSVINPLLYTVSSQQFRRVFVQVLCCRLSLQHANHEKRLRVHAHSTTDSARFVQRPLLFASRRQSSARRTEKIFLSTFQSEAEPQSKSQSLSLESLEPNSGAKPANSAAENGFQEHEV
Experimental: (§1) First, cDNA encoding G protein-coupled receptor protein, the GPR39 (SEQ ID NO: 1) prepared by the method publicly known was inserted into pAKKO-111H (the same plasmid vector as pAKKO-1.111H described in Biochem. Biophys. Acta, Hinuma, S. et al., 1219, 251-259, 1994). Using the expression plasmid for animal cells thus obtained, Escherichia coli JM109 was transfected and the colonies obtained were isolated and cultured. Thereafter, large scale plasmid preparation was carried out using QIAGEN Plasmid Maxi Kit (Qiagen). Furthermore, the pSRE-Luc reporter plasmid (Invitrogen) ligated with a luciferase gene as a reporter at the downstream of serum response element (SRE), and expression vector plasmids for human GαoA, human Gβ1 and human Gγ2, which are a kind of G proteins, were prepared in a similar manner.
(§2) HeLa cells as host cells for transfecting the G protein-coupled receptor protein expression plasmid and the reporter plasmid were plated on a 384-well assay plate (COSTAR 3704) at 4000 cells/well in a culture volume of 25 μl, followed by incubation overnight. The medium used was DMEM (Invitrogen) supplemented with 10% fetal calf serum and 1% MEM non-essential amino acids solution (DMEM/NEAA).
(§3) Each plasmid was added to and mixed with 240 μl of Opti-MEM-I (Invitrogen) in a proportion of 1 μl of the protein expression plasmid or, for comparison, expression vector pAKKO-111H without DNA encoding the receptor protein in place of an expression plasmid of the receptor, 9 μl of the reporter plasmid and 1 μl each of the G protein-coupled receptor protein expression plasmid GαoA, Gβ1 or Gγ2. […]
(§4) The HeLa cells prepared in EXAMPLE 1 were washed twice with fetal calf serum-free DMEM/NEAA (assay medium) and then cultured in the same assay medium at 37° C. under 5% CO2 for 2 hours. […] After the cells were lysed and thoroughly mixed with the substrate, the chemiluminescence level corresponding to the expression induction level of the reporter gene in each well was measured on the plate reader (EnVision™, Perkin-Elmer).

[2] = system: pAKKO-111H transfected cells (control); experiment: SRE-luciferase reporter assay in pAKKO-111H transfected HeLa cells for control; conditions: for Luciferase Activity (cps), pAKKO-111H (control): pAKKO-111H transfected HeLa cells, 4 hours, 0 μM baseline 2042
Experimental: as §1, §2, §3, §4

[3] = system: GPR39-expressed cell line UM-UC-3; experiment: IL-8 secretion from GPR39-expressed cell line UM-UC-3, quantified by EIA; conditions: 500 μM, 4 hours
Experimental: Using the GPR39-expressed cell line UM-UC-3 (Dainippon Pharmaceutical), effects by the addition of bile acids as the GPR39 agonist were examined.
On the day before assay, UM-UC-3 was cultured until preconfluent in MINIMUM ESSENTIAL MEDIUM (WITH EARLE'S SALTS, WITH L-GLUTAMINE) (GIBCO BRL) supplemented with 10% FCS and MEM NON-ESSENTIAL AMINO ACIDS (GIBCO BRL), washed with PBS, detached using trypsin, centrifuged for recovery and then suspended in a medium to 3×10^6 cells/ml. After a 100 μl aliquot was dispensed into each well of a 96-well plate (Falcon), followed by incubation overnight in a CO2 incubator.
On the assay day, after the medium for the cells prepared on the preceding day was removed, the cells were washed with MEM NON-ESSENTIAL AMINO ACIDS-containing MINIMUM ESSENTIAL MEDIUM (WITH EARLE'S SALTS, WITH L-GLUTAMINE). A […] was further charged in each well, followed by incubation […] at 37° C. in a CO2 incubator. Subsequently, a 100 μl aliquot of MEM NON-ESSENTIAL AMINO ACIDS-containing MINIMUM ESSENTIAL MEDIUM (WITH EARLE'S SALTS, WITH L-GLUTAMINE), to which various test samples were added, was dispensed into each well, followed by incubation […]. After the culture supernatant was recovered, IL-8 contained in each sample was quantified by EIA (Amersham).

Row | luciferase activity in the GPR39-expressed cells (in words) ([1]; TLCA 5 μM or 20 μM) | Increased Luciferase Activity (cps) by TLCA in GPR39-Expressed Cells ([1]; TLCA level 5 μM) [cps] | Increased Luciferase Activity (cps) by TLCA in GPR39-Expressed Cells ([1]; TLCA level 20 μM) [cps] | SMILES | luciferase activity in the pAKKO-111H transfected cells for control (in words) ([2]; TLCA added) | Luciferase Activity (cps), pAKKO-111H (control) ([2]; TLCA level 5 μM) [cps] | Luciferase Activity (cps), pAKKO-111H (control) ([2]; TLCA level 20 μM) [cps] | IL-8 accumulated in culture supernatant compared to absence of the conjugate [3]
1 | increased luciferase activity | 5977 | 8114 | C[C@H](CCC(=O)NCCS(=O)(=O)[O-])[C@H]1CC[C@H]2[C@@H]3CC[C@@H]4C[C@H](O)CC[C@]4(C)[C@H]3CC[C@]12C.[Na+] [TLCA, sodium taurolithocholate] | any marked increase of the activity was not detected | 2214 | 2542 | 
2 |  |  |  | C[C@H](CCC(=O)NCCS(=O)(=O)O)[C@H]1CC[C@H]2[C@@H]3CC[C@@H]4C[C@H](O)CC[C@]4(C)[C@H]3C[C@H](O)[C@]12C [taurine conjugate of deoxycholic acid] |  |  |  | approximately twice as much
